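How tested: cells in 96-well plates exposed to compound for 48 hours at five concentrations. Abbreviation: GI50, concentration required for 50% inhibition of growth.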 Calls of active or inactive are those of the source. Cut-off read from the data, not from the text of the source: active = GI50 up to about 1.1 µM and inactive = higher.
Legend:
Test in all cases: NCI tumour cell line growth inhibition, 48 h
U-251 = test system: U-251
NCI/ADR-RES = test system: NCI/ADR-RES
A549 = test system: A549
CCRF-CEM = test system: CCRF-CEM
RPMI-8226 = test system: RPMI-8226
UACC-62 = test system: UACC-62
NCI-H23 = test system: NCI-H23
SNB-19 = test system: SNB-19
HT-29 = test system: HT-29
786-0 = test system: 786-0
COLO 205 = test system: COLO 205
SF-268 = test system: SF-268
Hs-578T = test system: Hs-578T
MDA-MB-231 = test system: MDA-MB-231
SN12C = test system: SN12C
HCT-15 = test system: HCT-15
SK-OV-3 = test system: SK-OV-3
SK-MEL-5 = test system: SK-MEL-5
HOP-92 = test system: HOP-92
OVCAR-4 = test system: OVCAR-4

Row | Structure (SMILES) | GI50 (U-251) | GI50 (NCI/ADR-RES) | GI50 (A549) | GI50 (CCRF-CEM) | GI50 (RPMI-8226) | GI50 (UACC-62) | GI50 (NCI-H23) | GI50 (SNB-19) | GI50 (HT-29) | GI50 (786-0) | GI50 (COLO 205) | GI50 (SF-268) | GI50 (Hs-578T) | GI50 (MDA-MB-231) | GI50 (SN12C) | GI50 (HCT-15) [µM] | GI50 (SK-OV-3) | GI50 (SK-MEL-5) | GI50 (HOP-92) | GI50 (OVCAR-4)
1 | O=C(O)COc1c(Cl)cc(Cl)c2cccnc12 | > 100 µM (inactive) | > 100 µM (inactive) | > 100 µM (inactive) | > 100 µM (inactive) | > 100 µM (inactive) | > 100 µM (inactive) | > 100 µM (inactive) | > 100 µM (inactive) | > 100 µM (inactive) | > 100 µM (inactive) | > 100 µM (inactive) | > 100 µM (inactive) | > 100 µM (inactive) | > 100 µM (inactive) | > 100 µM (inactive) | > 100 | > 100 µM (inactive) | > 100 µM (inactive) | > 100 µM (inactive) | > 100 µM (inactive)
2 | COc1ccc(-c2cc(-c3ccccc3)nc(N)n2)c(O)c1 | 12.6 µM (inactive) | > 52 µM (inactive) | 12.8 µM (inactive) | 4.59 µM (inactive) | 2.31 µM (inactive) | > 28.9 µM (inactive) | > 100 µM (inactive) | > 82.8 µM (inactive) | > 26.9 µM (inactive) | > 100 µM (inactive) | > 100 µM (inactive) | 17.8 µM (inactive) | > 100 µM (inactive) | > 26.2 µM (inactive) | > 25.3 µM (inactive) | 6.03 | 7 µM (inactive) | 7.16 µM (inactive) | > 43 µM (inactive) | > 74.6 µM (inactive)
3 | COC(C)(C)[C@@H](O)[C@H]1C[C@H](C)[C@@]2(CC[C@]3(C)[C@@H]2CC[C@@H]2[C@@]4(C)CC[C@@H](OC(C)=O)C(C)(C)[C@@H]4C[C@@H](OC4OC(COC(C)=O)C(O)C(O)C4O)[C@]23C)O1 (some centres not stated) | 5.7 µM (inactive) | 7.43 µM (inactive) | 4.01 µM (inactive) | 3.3 µM (inactive) | 2.42 µM (inactive) | 4.93 µM (inactive) | 10.2 µM (inactive) | 8.73 µM (inactive) | 1.89 µM (inactive) | 5.86 µM (inactive) | 2.38 µM (inactive) | 4.98 µM (inactive) | 6.76 µM (inactive) | 8.83 µM (inactive) | 6.43 µM (inactive) | 2.39 | 4.7 µM (inactive) | 6.53 µM (inactive) | 4.8 µM (inactive) | 3.48 µM (inactive)
4 | COC1=CC(=O)c2nc3ccccc3c3ccnc1c23 | 5.05 µM (inactive) | 3.71 µM (inactive) | 1.12 µM (inactive) | 4.4 µM (inactive) | 1.83 µM (inactive) | 1.07 µM (active) | 1.35 µM (inactive) | 12.4 µM (inactive) | 3.24 µM (inactive) | 3.64 µM (inactive) | 6.64 µM (inactive) | 3.94 µM (inactive) | 5.48 µM (inactive) | 7.8 µM (inactive) | 6.82 µM (inactive) | 0.721 | 26.9 µM (inactive) | 0.653 µM (active) | 15.8 µM (inactive) | 4.89 µM (inactive)
5 | CCCCCCCCCCCCCCCCCCNc1nc(=O)n(C2CC(O)C(COP(=O)(O)OCC3OC(n4ccc(N)nc4=O)C(O)C3O)O2)cc1F (configuration not stated) | 23.7 µM (inactive) | 17.9 µM (inactive) | 3.25 µM (inactive) | > 100 µM (inactive) | > 100 µM (inactive) | 80.4 µM (inactive) | 16 µM (inactive) | 10.6 µM (inactive) | 13.1 µM (inactive) | 8.34 µM (inactive) | 26.9 µM (inactive) | 32.1 µM (inactive) | > 100 µM (inactive) | 27.7 µM (inactive) | 27 µM (inactive) | 12.7 | 53.6 µM (inactive) | > 100 µM (inactive) | 31.1 µM (inactive) | 93.5 µM (inactive)
6 | CCC/C(Cl)=N\OC(=O)Nc1ccc(OC(F)(F)F)cc1 | 27 µM (inactive) | 6.98 µM (inactive) | 20.2 µM (inactive) | 2.47 µM (inactive) | 2.11 µM (inactive) | 18.8 µM (inactive) | 21.4 µM (inactive) | 30.3 µM (inactive) | 18.2 µM (inactive) | 12.3 µM (inactive) | 1.82 µM (inactive) | 24.7 µM (inactive) | 28.1 µM (inactive) | 9.93 µM (inactive) | 8.57 µM (inactive) | 2.42 | 18.5 µM (inactive) | 5.4 µM (inactive) | 2.22 µM (inactive) | 18.6 µM (inactive)
7 | CC1=CC[C@H](C[C@H](C#CCCCC2OCCO2)O[Si](C(C)C)(C(C)C)C(C)C)C(=O)CC1 | > 100 µM (inactive) | > 100 µM (inactive) | > 100 µM (inactive) | > 100 µM (inactive) | > 100 µM (inactive) | > 100 µM (inactive) | > 100 µM (inactive) | > 100 µM (inactive) | > 100 µM (inactive) | > 100 µM (inactive) | > 100 µM (inactive) | > 100 µM (inactive) | > 100 µM (inactive) | > 100 µM (inactive) | > 100 µM (inactive) | > 100 | > 100 µM (inactive) | > 100 µM (inactive) | > 100 µM (inactive) | > 100 µM (inactive)
8 | Cc1ccc(S(=O)(=O)N/N=C/C2(c3ccccc3)c3ccccc3-c3ccccc32)cc1 | 11.8 µM (inactive) | 7.94 µM (inactive) | 5.74 µM (inactive) | 4.16 µM (inactive) | 7.45 µM (inactive) | 11.2 µM (inactive) | 15.5 µM (inactive) | 18.7 µM (inactive) | 12.5 µM (inactive) | 12.1 µM (inactive) | 3.62 µM (inactive) | 14 µM (inactive) | 14.3 µM (inactive) | 6.64 µM (inactive) | 11.7 µM (inactive) | 9.27 | 15.4 µM (inactive) | 11.6 µM (inactive) | 12.6 µM (inactive) | 10.3 µM (inactive)
9 | C=C1NC(=O)C(CC(C(=O)C(=O)Nc2c(C)cccc2C(C)(C)C)C(=O)c2ccc3ccccc3c2)C(=O)N1 (configuration not stated) | > 100 µM (inactive) | > 100 µM (inactive) | > 100 µM (inactive) | > 100 µM (inactive) | > 100 µM (inactive) | > 100 µM (inactive) | > 100 µM (inactive) | > 100 µM (inactive) | > 100 µM (inactive) | > 100 µM (inactive) | > 100 µM (inactive) | > 100 µM (inactive) | > 100 µM (inactive) | > 100 µM (inactive) | > 100 µM (inactive) | > 100 | > 100 µM (inactive) | > 100 µM (inactive) | > 100 µM (inactive) | > 100 µM (inactive)
10 | COc1ccc2c3c1OC1C34CCN(C)C(C2)C4=CC(I)C1(OC)OC (configuration not stated) | 16.2 µM (inactive) | 41.5 µM (inactive) | 22.2 µM (inactive) | 1.32 µM (inactive) | 2.71 µM (inactive) | 14.6 µM (inactive) | 7.41 µM (inactive) | 16.2 µM (inactive) | 7.66 µM (inactive) | 4.15 µM (inactive) | 13.9 µM (inactive) | 16.7 µM (inactive) | 37 µM (inactive) | 18.5 µM (inactive) | 5.78 µM (inactive) | 11.8 | 15 µM (inactive) | 12 µM (inactive) | 11.4 µM (inactive) | 13.2 µM (inactive)
11 | CCCc1c(O)nc(Nc2nc3ccccc3[nH]2)[nH]c1=O | > 100 µM (inactive) | > 100 µM (inactive) | > 100 µM (inactive) | 86.5 µM (inactive) | > 100 µM (inactive) | > 100 µM (inactive) | > 100 µM (inactive) | > 100 µM (inactive) | > 100 µM (inactive) | > 100 µM (inactive) | > 100 µM (inactive) | > 100 µM (inactive) | > 100 µM (inactive) | > 100 µM (inactive) | > 100 µM (inactive) | > 100 | > 100 µM (inactive) | > 100 µM (inactive) | > 100 µM (inactive) | > 100 µM (inactive)
12 | O=C(c1ccccc1)c1c2ccccn2c2cccc[n+]12 | > 100 µM (inactive) | > 100 µM (inactive) | 82.4 µM (inactive) | > 100 µM (inactive) | > 100 µM (inactive) | > 100 µM (inactive) | – | – | > 100 µM (inactive) | > 100 µM (inactive) | 20.1 µM (inactive) | > 100 µM (inactive) | > 100 µM (inactive) | > 100 µM (inactive) | – | > 100 | > 100 µM (inactive) | 47 µM (inactive) | > 100 µM (inactive) | > 100 µM (inactive)
13 | CC(C)(C)c1ccc(S(=O)(=O)N2C(c3cccc(C4CC[C@@H](C(=O)O)N4S(=O)(=O)c4ccc(C(C)(C)C)cc4)c3)CC[C@H]2C(=O)O)cc1 (some centres not stated) | 38.9 µM (inactive) | > 100 µM (inactive) | 66.7 µM (inactive) | 33 µM (inactive) | 34.5 µM (inactive) | 44.9 µM (inactive) | 40.2 µM (inactive) | 59.3 µM (inactive) | 47.8 µM (inactive) | 49.4 µM (inactive) | 34 µM (inactive) | 77.8 µM (inactive) | 47 µM (inactive) | > 100 µM (inactive) | 47.3 µM (inactive) | 43.2 | > 100 µM (inactive) | 57.7 µM (inactive) | 58.1 µM (inactive) | 54.8 µM (inactive)
14 | CC1(C)N=C(N)N=C(N)N1c1cccc(OCc2cccc([N+](=O)[O-])c2)c1 | 2.88 µM (inactive) | > 100 µM (inactive) | 4.18 µM (inactive) | 5.4 µM (inactive) | 32.7 µM (inactive) | 6.11 µM (inactive) | 7.26 µM (inactive) | 11.5 µM (inactive) | 6.03 µM (inactive) | 5.78 µM (inactive) | 9.93 µM (inactive) | 9.75 µM (inactive) | > 100 µM (inactive) | > 53.8 µM (inactive) | 9.98 µM (inactive) | > 100 | > 100 µM (inactive) | 4.86 µM (inactive) | > 100 µM (inactive) | 39.6 µM (inactive)

Source: ChEMBL document CHEMBL1201862, “PubChem BioAssay data set” (2004)
